Test results reported in US20260191196A1, “COMPOSITIONS AND METHODS FOR IMPROVING SOIL MICROBIAL POPULATIONS” (SYNGENTA CROP PROTECTION AG, priority 2022, published 2026).

Key:
[1] = system: arbuscular mycorrhizae fungi; assay: Mycorrhization in soybean roots after seed treatment; type: in vivo
Description: Soybeans of variety Toliman were treated with 0.15 mg ai/seed of cyclobutrifluram and analogues, and planted in 1.5 L pots of 0-3 mm sieved soil. The seeds were inoculated with Bradyrhizobium japonicum using a commercially available product for soybeans.
In a first series, for each active ingredient tested, 15 replicate pots were sowed. In each pot, 3 seeds were sowed. After germination, 2 seedling was removed from each pot to a final number of 1 plant per pot. Each pot was inoculated with a small amount of a mycorrhizal inoculant (Blend A, commercially available from Symbiom, Czech Republic). The plants were grown in a greenhouse for 81 days under the following conditions: Humidity at 45-64%, Temperature of 22° C. to 24° C., in a 16/8 hour day/night cycle. In a further test series, Soybeans seeds treated as outlined above were then planted in 1 Lpots of 0-3 mm sieved soil. For each active ingredient, 8 replicate pots were sowed, whereby in each pot, 3 seeds were sowed. After germination, 2 seedlings were removed from each pot to a final number of 1 plant per pot.
The plants were then grown in a growth chamber for 42 days with the following conditions: Temperature of 20° C. and with a 12/12 hour day/night.
After harvest, the percent mycorrhization was quantified using the methods of McGonigle et al. (T. P. McGONIGLE, M. H. MILLER and D. G. EVANS et al., “A new method which gives an objective measure of colonization of roots by vesicular-arbuscular mycorrhizal fungi”. New Phytol. Vol. 115 (3): 495-501.).

[2] = system: soil fungal community; assay: Plant associated soil microbiome: fungal community by ITS amplicon sequencing; type: in vivo, tomato plants
Text: Differential abundance of fungal taxa after 97 days in treated soil, as detected by PCR amplification and successive high-throughput sequencing of fungal taxonomical marker genes (the small-subunit ribosomal RNA gene (16S) and the ribosomal internal transcribed spacers (ITS) respectively) on plant-associated soil samples.
(§1) To detect microbial community modifications in the soil microbiome associated with the cyclobutrifluram treatment against root knot nematodes, PCR amplification and successive high-throughput sequencing of bacterial and fungal taxonomical marker genes (the small-subunit ribosomal RNA gene (16S) and the ribosomal internal transcribed spacers (ITS) respectively) were performed on plant-associated soil samples.
Comparison of the fungal community of Control and RKN-Cyclobutrifluram plant-associated 5 soil samples highlighted a microbiome shift mainly characterised by the reduction of the plant-pathogen Fusarium, an ubiquitous pathogenic fungus that constitutes an abundant taxon in control soil. Fusarium relative abundance results reduced from 17.8% in control samples to 7.5% after cyclobutrifluram treatment. Table 1b reports fungal genera detected by ITS gene amplicon sequencing with taxonomy assignment at genus level; relative abundance in Control and Cyclobutrifluram treated samples statistically significative (Deseq2, p=0.1), the relative abundance variation.

[3] = system: Trichoderma brevicompactum; assay: Potato field trial: beneficial fungi in soil (ITS sequencing, differential abundance); type: in vivo, potato (Solanum tuberculosum L.); settings: location B; 200 and 250 gai/ha
Description: In this experiment, assuming that biodiversity can be measured by the taxonomic richness and abundance of each taxon, the differences between treatments are determined and their effect on populations and beneficial species over time is verified. This leads to testing two hypotheses. Firstly, there is an impact of cyclobutrifluram applications on microbial diversity. Secondly, the use of cyclobutrifluram improves beneficial microbial diversity over time. These hypotheses were tested in two potato farms in the USA.
The experiment was carried out in two potato (Solanum tuberculosum L.) fields located in two test locations in Louisiana, USA, described as locations A and B in Table 2. […]
as §1, with “As set out above, to” for “To”, “treatment,” for “treatment against root knot nematodes,”, “samples. An exploratory data analysis was conducted to describe the microbial biodiversity and the behaviour of the percentage of the abundance of species under the evaluated factors. […]” for “samples.”

[4] = Cyclobutrifluram treated plant-associated soil, RKN

O=C(N[C@@H]1CC[C@@H]1c1ccc(Cl)cc1Cl)c1cccnc1C(F)(F)F (racemic) [Cyclobutrifluram, cyclobutrifluram]
response vs control in vivo at 0.15 mg/seed ([1]; Glycine max, soybean variety Toliman, seed treatment 0.15 mg ai/seed, mycorrhizal inoculant Blend A, relative to control, read-out: [%] arbuscular mycorrhizae fungi colonization vs. control.): 115%
level of mycorrhizal colonization in soybean roots (in words) ([1]; compared to control): higher colonization
Relative abundance, Acremonium [2, 4]: 0.214%
Relative abundance, Arthrinium [2, 4]: 0.398%
Relative abundance, Candida [2, 4]: 0.839%
Relative abundance, Chrysosporium [2, 4]: 17.327%
Relative abundance, Cladosporium [2, 4]: 3.983%
Relative abundance, Conostachys [2, 4]: 0.797%
Relative abundance, Eleutherascus [2, 4]: 0.217%
Relative abundance, Endoconidiophora [2, 4]: 5.102%
Relative abundance, Fusarium [2, 4]: 7.544%
Relative abundance, Humicola [2, 4]: 0.000%
Relative abundance, Lectera [2, 4]: 1.767%
Relative abundance, Monocillium [2, 4]: 0.083%
Relative abundance, Mortierella [2, 4]: 2.111%
Relative abundance, Mycosphaerella [2, 4]: 1.672%
Relative abundance, Oidiodendron [2, 4]: 0.292%
Relative abundance, Paraphoma [2, 4]: 0.043%
Relative abundance, Phialemonium [2, 4]: 0.357%
Relative abundance, Pseudaleuria [2, 4]: 1.936%
Relative abundance, Pseudogymnoascus [2, 4]: 0.870%
Relative abundance, Saitozyma [2, 4]: 0.907%
Relative abundance, Schwanniomyces [2, 4]: 0.017%
Relative abundance, Sebacina [2, 4]: 0.077%
Relative abundance, Solicoccozyma [2, 4]: 0.407%
Relative abundance, Tetracladium [2, 4]: 0.318%
Relative abundance, Verticillium [2, 4]: 0.571%
Relative abundance, Fusarium ([2]; Cyclobutrifluram treated plant-associated soil, RKN, listed as cyclobutrifluram): 7.5%
relative abundance variation vs Control, Acremonium ([2]; Deseq2, p=0.1): +0.056%
relative abundance variation vs Control, Arthrinium ([2]; Deseq2, p=0.1): +0.293%
relative abundance variation vs Control, Candida ([2]; Deseq2, p=0.1): −0.269%
relative abundance variation vs Control, Chrysosporium ([2]; Deseq2, p=0.1): +2.918%
relative abundance variation vs Control, Cladosporium ([2]; Deseq2, p=0.1): −1.949%
relative abundance variation vs Control, Conostachys ([2]; Deseq2, p=0.1): +0.132%
relative abundance variation vs Control, Eleutherascus ([2]; Deseq2, p=0.1): +0.108%
relative abundance variation vs Control, Endoconidiophora ([2]; Deseq2, p=0.1): +2.581%
relative abundance variation vs Control, Fusarium ([2]; Deseq2, p=0.1): −10.274%
relative abundance variation vs Control, Humicola ([2]; Deseq2, p=0.1): −0.112%
relative abundance variation vs Control, Lectera ([2]; Deseq2, p=0.1): +1.617%
relative abundance variation vs Control, Monocillium ([2]; Deseq2, p=0.1): +0.070%
relative abundance variation vs Control, Mortierella ([2]; Deseq2, p=0.1): −0.412%
relative abundance variation vs Control, Mycosphaerella ([2]; Deseq2, p=0.1): −0.541%
relative abundance variation vs Control, Oidiodendron ([2]; Deseq2, p=0.1): +0.054%
relative abundance variation vs Control, Paraphoma ([2]; Deseq2, p=0.1): −0.023%
relative abundance variation vs Control, Phialemonium ([2]; Deseq2, p=0.1): −0.044%
relative abundance variation vs Control, Pseudaleuria ([2]; Deseq2, p=0.1): +1.181%
relative abundance variation vs Control, Pseudogymnoascus ([2]; Deseq2, p=0.1): +0.550%
relative abundance variation vs Control, Saitozyma ([2]; Deseq2, p=0.1): −0.038%
relative abundance variation vs Control, Schwanniomyces ([2]; Deseq2, p=0.1): −0.005%
relative abundance variation vs Control, Sebacina ([2]; Deseq2, p=0.1): −0.027%
relative abundance variation vs Control, Solicoccozyma ([2]; Deseq2, p=0.1): +0.082%
relative abundance variation vs Control, Tetracladium ([2]; Deseq2, p=0.1): +0.088%
relative abundance variation vs Control, Verticillium ([2]; Deseq2, p=0.1): +0.156%
effect on soil microbiome diversity (fungal taxa, FIG. 1) ([2]; apart from inhibiting Fusarium): preserves soil microbiome diversity
relative abundance of the plant-pathogen Fusarium (in words) ([2]; soil of tomato plants in presence of RKN infestation, medium-long term): substantially reduced
Trichoderma brevicompactum relative abundance [3]: significant enhancement
